Data from ChEMBL document CHEMBL1122101, “Synthesis and tissue distribution study of iodine-labeled benzyl- and xylylamines” (J Med Chem, 1982).

Experiments:
[1] = test system: Rattus norvegicus; experiment: Evaluated for biodistribution in rat blood after 6 min of administration; format: ADME, organism-based; conditions: in vivo, 0.1 h
[2] = test system: Rattus norvegicus; experiment: Evaluated for biodistribution in rat heart after 6 min of administration; format: ADME, organism-based; conditions: in vivo, 0.1 h
[3] = test system: Rattus norvegicus; experiment: Evaluated for biodistribution in rat liver after 1 min of administration; format: ADME, organism-based; conditions: in vivo
[4] = test system: Rattus norvegicus; experiment: Evaluated for biodistribution in rat lung after 6 min of administration; format: ADME, organism-based; conditions: in vivo, 0.1 h
[5] = test system: Rattus norvegicus; experiment: Evaluated for biodistribution in rat lung after 2 min of administration; format: ADME, organism-based; conditions: in vivo
[6] = test system: Rattus norvegicus; experiment: Evaluated for biodistribution in rat liver after 6 min of administration; format: ADME, organism-based; conditions: in vivo, 0.1 h
[7] = test system: Rattus norvegicus; experiment: Evaluated for biodistribution in rat heart after 1 min of administration; format: ADME, organism-based; conditions: in vivo
[8] = test system: Rattus norvegicus; experiment: Evaluated for biodistribution in rat blood after 1 min of administration; format: ADME, organism-based; conditions: in vivo
[9] = test system: Rattus norvegicus; experiment: Evaluated for biodistribution in rat kidney after 6 min of administration; format: ADME, organism-based; conditions: in vivo, 0.1 h
[10] = test system: Rattus norvegicus; experiment: Evaluated for biodistribution in rat kidney after 2 min of administration; format: ADME, organism-based; conditions: in vivo
[11] = test system: Rattus norvegicus; experiment: Evaluated for biodistribution in rat blood after 2 min of administration; format: ADME, organism-based; conditions: in vivo
[12] = test system: Rattus norvegicus; experiment: Evaluated for biodistribution in rat thyroid after 1 min of administration; format: ADME, organism-based, Thyroid gland; conditions: in vivo
[13] = test system: Rattus norvegicus; experiment: Evaluated for biodistribution in rat lung after 1 min of administration; format: ADME, organism-based; conditions: in vivo
[14] = test system: Rattus norvegicus; experiment: Evaluated for biodistribution in rat thyroid after 6 min of administration; format: ADME, organism-based, Thyroid gland; conditions: in vivo, 0.1 h
[15] = test system: Rattus norvegicus; experiment: Evaluated for biodistribution in rat heart after 2 min of administration; format: ADME, organism-based; conditions: in vivo
[16] = test system: Rattus norvegicus; experiment: Evaluated for biodistribution in rat brain after 1 min of administration; format: ADME, organism-based; conditions: in vivo
[17] = test system: Rattus norvegicus; experiment: Evaluated for biodistribution in rat kidney after 1 min of administration; format: ADME, organism-based; conditions: in vivo
[18] = test system: Rattus norvegicus; experiment: Evaluated for biodistribution in rat brain after 6 min of administration; format: ADME, organism-based; conditions: in vivo, 0.1 h
[19] = test system: Rattus norvegicus; experiment: Evaluated for biodistribution in rat thyroid after 2 min of administration; format: ADME, organism-based, Thyroid gland; conditions: in vivo
[20] = test system: Rattus norvegicus; experiment: Evaluated for biodistribution in rat liver after 2 min of administration; format: ADME, organism-based; conditions: in vivo
[21] = test system: Rattus norvegicus; experiment: Evaluated for biodistribution in rat brain after 2 min of administration; format: ADME, organism-based; conditions: in vivo
[22] = Evaluated for the carrier level on brain uptake at 0.4 mg/kg dose in rat; format: ADME, organism-based; design: dose 0.4 mg/kg; conditions: in vivo
[23] = Evaluated for the carrier level on brain uptake at 0.04 mg/kg dose in rat; format: ADME, organism-based; design: dose 0.04 mg/kg; conditions: in vivo
[24] = Evaluated for the carrier level on brain uptake at 4 mg/kg dose in rat; format: ADME, organism-based; design: dose 4 mg/kg; conditions: in vivo
[25] = Evaluated for the carrier level on brain uptake at 40 mg/kg dose in rat; format: ADME, organism-based; design: dose 40 mg/kg; conditions: in vivo

| Biodistribution [1] [%] | Biodistribution [2] [%] | Biodistribution [3] [%] | Biodistribution [4] [%] | Biodistribution [5] [%] | Biodistribution [6] [%] | Biodistribution [7] [%] | Biodistribution [8] [%] | Biodistribution [9] [%] | Biodistribution [10] [%] | Biodistribution [11] [%] | Biodistribution [12] [%] | Biodistribution [13] [%] | Biodistribution [14] [%] | Biodistribution [15] [%] | Biodistribution [16] [%] | Biodistribution [17] [%] | Biodistribution [18] [%] | Biodistribution [19] [%] | Biodistribution [20] [%] | also measured | Structure (SMILES) |
| --- | --- | --- | --- | --- | --- | --- | --- | --- | --- | --- | --- | --- | --- | --- | --- | --- | --- | --- | --- | --- | --- |
| 0.77 | 0.18 | 13.51 | 1.75 | 26.54 | 9.2 | 0.51 | 1.6 | 1.97 | 7.33 | 4.11 | 0.15 | 6.65 | 0.11 | 3.19 | 1.47 | 7.75 | 0.7 | 0.22 | 12.5 | Biodistribution [21]: 1.7% | Ic1ccc(CN2CCCCC2)cc1CN1CCCCC1 |
| 0.42 | 0.19 | 18.31 | 1.96 | 22.63 | 7.81 | 0.44 | 0.83 | 2.98 | 7.69 | 3.52 | 0.11 | 4.36 | 0.14 | 2.76 | 2.36 | 6.19 | 1.51 | 0.28 | 9.52 | Brain uptake [22]: 3.03%; Brain uptake [23]: 2.67%; Brain uptake [24]: 2.09%; Brain uptake [25]: 2.43%; Biodistribution [21]: 2.4% | CN(C)Cc1ccc(I)c(CN(C)C)c1 |
| 1.33 | 0.83 | 8.38 | 8.71 | 31.98 | 5.17 | 1.99 | 1.76 | 3.4 | 6.93 | 6.42 | 0.27 | 13.02 | 0.45 | 2.18 | 0.64 | 6.71 | 0.59 | 0.18 | 10.22 | Biodistribution [21]: 0.62% | CC(C)NCc1ccc(I)c(CNC(C)C)c1 |
| 0.35 | 0.014 | 1.92 | 0.04 | 2.9 | 0.45 | 0.06 | 1.35 | 0.34 | 10.12 | 7.01 | 0.01 | 0.19 | 0.035 | 0.59 | 0.07 | 1.03 | 0.022 | 0.11 | 11.81 | Biodistribution [21]: 2.42% | CN(C)Cc1ccccc1I |
